This note sets out measurements from patent EP3046573B1, “AMYLIN ANALOGUES” (Zealand Pharma A/S, priority 2013, dated 2015).

Data set [1] in a line: Assessment of chemical stability: normalized purity by RP-HPLC after incubation at 40 °C. The data set is classed as physicochemical. Particulars: normalized purity (T=0 set to 100), 0.2 mg/ml; for Chem. stability; 7 days, 40°C pH 4: pH 4, 7 days; for Chem. stability; 7 days, 40°C pH 7.5: pH 7.5, 7 days; for Chem. stability; 7 days, 40°C pH 9: pH 9, 7 days. The method, then: Samples of each test peptide were dissolved in MilliQ™ water, and the pH of the solution was adjusted to pH 4, pH 7.5 or pH 9, respectively, using either HCI or NaOH. The final peptide concentration was 0.2 mg/ml. Samples were placed in glass vials and incubated at 40 °C. The samples were analyzed by RP-HPLC on a C8 column with gradient elution using an ammonium formate/water eluent system, or on a C18 column with gradient elution using a trifluoroacetic acid/water eluent system. The area-percentage (area-%) of the main peak after incubation time T = t (relative to time T = 0) was determined by UV spectroscopy at 220 nm.
The purity was first determined as follows: Purity(area−%) = (area of main peak/total area of all peaks) × 100. [formula]
The purity was then normalized between time points by setting purity at time 0 (T=0) to 100 for each pH value for a given peptide, as follows: Normalised area−%at time t(T = t) = [area−%(T = t)/area−%(T = 0)] × 100. [formula]
The normalized purity values in Table 2 were determined after 7 days of incubation. Table 2. EC50, chemical stability and fibrillation data for compounds of the invention

Data set [2] concerns the target T1, human calcitonin receptor (hCTR2) (Homo sapiens, UniProt P30988).
T1 construct: expressed in transfected cells
T1 sequence (P30988 25-474): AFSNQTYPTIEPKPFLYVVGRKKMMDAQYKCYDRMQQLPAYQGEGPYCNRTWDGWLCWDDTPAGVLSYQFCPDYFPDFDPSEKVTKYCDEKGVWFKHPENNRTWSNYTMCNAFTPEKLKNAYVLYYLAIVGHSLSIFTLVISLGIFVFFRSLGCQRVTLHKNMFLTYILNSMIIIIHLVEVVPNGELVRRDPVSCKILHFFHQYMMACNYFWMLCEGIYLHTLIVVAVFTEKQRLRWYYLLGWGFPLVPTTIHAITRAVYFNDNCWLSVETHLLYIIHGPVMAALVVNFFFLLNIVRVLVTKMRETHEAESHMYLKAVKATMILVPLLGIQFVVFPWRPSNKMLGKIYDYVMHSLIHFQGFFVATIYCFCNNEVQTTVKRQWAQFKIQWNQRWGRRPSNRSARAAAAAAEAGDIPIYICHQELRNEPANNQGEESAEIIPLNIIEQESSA
Briefly: hCTR2 assay: induction of cAMP (AlphaScreen cAMP Assay kit) in COS7 cells expressing hCTR2. The data set is classed as cell-based. The gist of the method:
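Cells were seeded one day ahead, washed, then exposed to rising peptide concentrations for 15 min at 37° C in the presence of 100 µM IBMX. After lysis for 10 min at room temperature, cAMP was quantified by AlphaScreen and EC50 values derived by 4PL fitting.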
Background: Bead proximity is the source of the signal in Alpha formats.

The nature of data set [3]: Solubility assessment (turbidity absorbance at 325 nm). It counts as physicochemical. The following applies: stock 2 mg/ml diluted 1:1, ambient temperature (typically 25°C), n=1; for Solubility, Acetate buffer pH 4: 100 mM acetate buffer pH 4.0; for Solubility, Acetate buffer pH 5: 100 mM acetate buffer pH 5.0; for Solubility, Histidine buffer pH 6: 100 mM histidine buffer pH 6.0; for Solubility, Histidine buffer pH 7: 100 mM histidine buffer pH 7.0; for Solubility, Phosphate buffer pH 6: 100 mM phosphate buffer pH 6.0; for Solubility, Phosphate buffer pH 7: 100 mM phosphate buffer pH 7.0; for Solubility, Phosphate buffer pH 7.5: 100 mM phosphate buffer pH7.5. The gist of the method:
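Read-out: turbidity as absorbance at 325 nm (280 nm also read), single samples, ambient temperature of typically 25°C. Samples were a 1:1 mix of 2 mg/ml stock (water, pH 2.5) with 100 mM acetate, histidine or phosphate buffers spanning pH 4.0–7.5. Cut-off: A325 ≤ 0.02 indicates ≥ 1 mg/ml.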

For data set [4], the system named is Zucker diabetic fatty (ZDF) rats. Briefly: Glycemic control in Zucker diabetic fatty rats. It counts as in vivo, male Zucker diabetic fatty (ZDF) rats. The following applies: 40 nmol/kg sc twice daily (bid), P < 0.001. The procedure: (§1) Whole-blood glucose levels were determined on tail-vein blood samples by the Biosen (EKF Diagnostic, Germany) enzyme-based electrode method. Blood samples were analyzed for glycated hemoglobin (HbA1c) using a Cobas c111 analyzer (Roche Diagnostics, Mannheim, Germany). Plasma insulin levels were measured using a Meso Scale Discovery (MSD) system (Rockville, MD, USA). Liver fat content was determined by magnetic resonance (MR) scanning using an Echo systems MR scanner. Fat depots were measured by weighing of excised fat.
84 male Zucker diabetic fatty (ZDF) rats (9-10 weeks of age) were used in this study. The animals were housed in groups of n = 2. Stratification of the animals was based on non-fasting blood glucose (primary), changes in non-fasting blood glucose measured from the arrival of the animals until one week before the initiation of the study (secondary) and body weight (tertiary). The animals were further divided into two "teams" with a pair-fed group (group 2) allocated to team 2. […] The amount of food eaten by the animals treated with Compound 82 (30 nmol/kg, team 1) each day was determined, and the same amount was given to a vehicle-treated pair-fed group of animals the following day. […]
Statistical analyses were performed using GraphPad™ Prism version 5. The measured parameters were compared using one- way ANOVA followed by Dunnett's multiple comparison test. […]

The subject of data set [5] is male Zucker diabetic fatty (ZDF) rats. Kind of data set: Efficacy testing: glycemic control in Zucker diabetic fatty rats. The data set is classed as in vivo. The method, then: as §1
84 male Zucker diabetic fatty (ZDF) rats (9-10 weeks of age) were used in this study. The animals were housed in groups of n = 2. Stratification of the animals was based on non-fasting blood glucose (primary), changes in non-fasting blood glucose measured from the arrival of the animals until one week before the initiation of the study (secondary) and body weight (tertiary). The animals were further divided into two "teams" with a pair-fed group (group 2) allocated to team 2. Animals from group 2 were pair-fed in order to compare between the contribution made by reduced food intake and by drug-induced effects on glycemic control. The amount of food eaten by the animals treated with Compound 82 (30 nmol/kg, team 1) each day was determined, and the same amount was given to a vehicle-treated pair-fed group of animals the following day.
Rats were treated for 4 weeks with Compound 82 (3, 30 and 100 nmol/kg, sc, every (ev.) 5th day), Compound 18 (30 nmol/kg sc, every 5th day), or the GLP-1 analogue liraglutide (40 nmol/kg sc, twice daily (bid)).
The effects of the compounds on glycemic control were investigated by measurement of non-fasting and fasting blood glucose levels and HbA1c levels.
Statistical analyses were performed using GraphPad™ Prism version 5. The measured parameters were compared using one- way ANOVA followed by Dunnett's multiple comparison test. Comparison between the pair-fed vehicle-treated group and the Compound 82 (30 nmol/kg) group was done using Student's two-tailed and unpaired t-test. Differences were considered statistically significant at p < 0.05.

Numbered stars: 1 amine (or outer) side, 2 acyl side, 3 side chain; on linkers, the order of the positions; unused ones are H or OH. Bridge positions count the residues as written; N and C are the ends. Square brackets hold non-standard residues; d marks the D form. Peptide text beside a SMILES is read from it. * marks the point of attachment. C20 diacid = O=C(O)CCCCCCCCCCCCCCCCCCC(=O)*; γGlu = O=C(O)[C@H](CCC(=O)[*:2])N[*:1]; NMeI = CC[C@H](C)[C@H](NC)C(=O)O; Sar = CNCC(=O)O

Consider `CC[C@H](C)[C@@H](C(=O)N[C@@H](CC(C)C)C(=O)N[C@@H](CO)C(=O)N[C@@H](CO)C(=O)N[C@H](C(=O)N[C@@H](CC(N)=O)C(=O)N[C@H](C(=O)NCC(=O)N[C@@H](CO)C(=O)N[C@@H](CC(N)=O)C(=O)N[C@H](C(=O)N1CCC[C@H]1C(N)=O)[C@@H](C)O)C(C)C)[C@@H](C)O)N(C)C(=O)[C@H](C)NC(=O)CN(C)C(=O)[C@H](Cc1ccccc1)NC(=O)[C@H](CC(N)=O)NC(=O)[C@H](CC(N)=O)NC(=O)[C@H](CO)NC(=O)[C@@H](CO)NC(=O)[C@H](Cc1c[nH]cn1)NC(=O)[C@H](Cc1c[nH]cn1)NC(=O)[C@H](CC(C)C)NC(=O)[C@H](Cc1ccccc1)NC(=O)[C@H](CCC(=O)O)NC(=O)[C@H](C)NC(=O)[C@H](CC(C)C)NC(=O)[C@H](CCCNC(=N)N)NC(=O)[C@H](CCC(N)=O)NC(=O)[C@@H](NC(=O)[C@H](C)NC(=O)[C@@H]1CSSC[C@H](NC(=O)[C@H](CCCNC(=N)N)NC(=O)CC[C@H](NC(=O)CCCCCCCCCCCCCCCCCCC(=O)O)C(=O)O)C(=O)N[C@@H](CC(N)=O)C(=O)N[C@@H]([C@@H](C)O)C(=O)N[C@@H](C)C(=O)N[C@@H]([C@@H](C)O)C(=O)N1)[C@@H](C)O` [Compound 29, [19CD]-isoGlu-RC()NTATC()ATQRLAEFLHH-DSer-SNNF-Gly(Me)-A-Ile(Me)-LSSTNVGSNTP-NH2] ({C20 diacid-γGlu}-RCNTATCATQRLAEFLHH[dS]SNNF[Sar]A[NMeI]LSSTNVGSNTP-NH2; disulfide 2-7), for which, in data set [1], the “Chem. stability; 7 days, 40°C pH 4” value was determined as 100 area-%; the “Chem. stability; 7 days, 40°C pH 7.5” value was 69 area-%; the “Chem. stability; 7 days, 40°C pH 9” value is 53 area-%. Further, in data set [2], the half-maximal effective concentration (EC50) is 420 pM. Further, in data set [3], the “Solubility, Acetate buffer pH 4” value is on record as “SS (SS indicates solubility ≥ 1mg/ml)”; the “Solubility, Acetate buffer pH 5” value is given as “SS (SS indicates solubility ≥ 1mg/ml)”; the “Solubility, Histidine buffer pH 6” value is “SS (SS indicates solubility ≥ 1mg/ml)”; the “Solubility, Histidine buffer pH 7” value is listed as “SS (SS indicates solubility ≥ 1mg/ml)”. In addition, in data set [3], the “Solubility, Phosphate buffer pH 6” value was “SS (SS indicates solubility ≥ 1mg/ml)”; the “Solubility, Phosphate buffer pH 7” value is listed as “SS (SS indicates solubility ≥ 1mg/ml)”; the “Solubility, Phosphate buffer pH 7.5” value was “SS (SS indicates solubility ≥ 1mg/ml)”.
Take `CC[C@H](C)[C@@H](C(=O)N[C@@H](CC(C)C)C(=O)N[C@@H](CO)C(=O)N[C@@H](CO)C(=O)N[C@H](C(=O)N[C@@H](CC(N)=O)C(=O)N[C@H](C(=O)NCC(=O)N[C@@H](CO)C(=O)N[C@@H](CC(N)=O)C(=O)N[C@H](C(=O)N1CCC[C@H]1C(N)=O)[C@@H](C)O)C(C)C)[C@@H](C)O)N(C)C(=O)[C@H](C)NC(=O)CN(C)C(=O)[C@H](Cc1ccccc1)NC(=O)[C@H](CC(N)=O)NC(=O)[C@H](CC(N)=O)NC(=O)[C@H](CO)NC(=O)[C@H](CO)NC(=O)[C@H](CCCNC(=N)N)NC(=O)[C@H](Cc1c[nH]cn1)NC(=O)[C@H](CC(C)C)NC(=O)[C@H](Cc1ccccc1)NC(=O)[C@H](CCC(=O)O)NC(=O)[C@H](C)NC(=O)[C@H](CC(C)C)NC(=O)[C@H](CCCNC(=N)N)NC(=O)[C@H](CCC(N)=O)NC(=O)[C@@H](NC(=O)[C@H](C)NC(=O)[C@@H]1CSSC[C@H](NC(=O)[C@H](Cc2c[nH]c3ccccc23)NC(=O)CC[C@H](NC(=O)CCCCCCCCCCCCCCCCCCC(=O)O)C(=O)O)C(=O)N[C@@H](CC(N)=O)C(=O)N[C@@H]([C@@H](C)O)C(=O)N[C@@H](C)C(=O)N[C@@H]([C@@H](C)O)C(=O)N1)[C@@H](C)O` [Compound 125, [19CD]-isoGlu-WC()NTATC()ATQRLAEFLHRSSNNF-Gly(Me)-A-Ile(Me)-LSSTNVGSNTP-NH2] ({C20 diacid-γGlu}-WCNTATCATQRLAEFLHRSSNNF[Sar]A[NMeI]LSSTNVGSNTP-NH2; disulfide 2-7): in data set [1], the “Chem. stability; 7 days, 40°C pH 4” value amounted to 77 area-%; the “Chem. stability; 7 days, 40°C pH 7.5” value came to 70 area-%; the “Chem. stability; 7 days, 40°C pH 9” value was 68 area-%. Further, the EC50 in data set [2] was 61 pM. For the same molecule, in data set [3], the “Solubility, Acetate buffer pH 4” value is “SS (SS indicates solubility ≥ 1mg/ml)”; the “Solubility, Acetate buffer pH 5” value is listed as “SS (SS indicates solubility ≥ 1mg/ml)”; the “Solubility, Histidine buffer pH 6” value is reported as “SS (SS indicates solubility ≥ 1mg/ml)”; the “Solubility, Histidine buffer pH 7” value is listed as “SS (SS indicates solubility ≥ 1mg/ml)”. Besides, in data set [3], the “Solubility, Phosphate buffer pH 6” value is listed as “II (II indicates solubility ≤ 1 mg/ml)”; the “Solubility, Phosphate buffer pH 7” value is listed as “SS (SS indicates solubility ≥ 1mg/ml)”; the “Solubility, Phosphate buffer pH 7.5” value is listed as “SS (SS indicates solubility ≥ 1mg/ml)”.
Turning to liraglutide, the “blood glucose levels (non-fasting and fasting)” value in data set [4] is “significant blood glucose lowering effect”.
As for liraglutide [reference compound], the “terminal HbA1c levels” value in data set [5] (40 nmol/kg sc twice daily (bid), 4 weeks, vehicle 8.7 ± 0.2) turned out to be 5.8 ± 0.2%. Further, the “blood glucose lowering effect” value in data set [5] (40 nmol/kg sc twice daily, P < 0.001) is “significant”.

The EC50 is the midpoint of the concentration-response curve.
